For experiment [1], the species on record is Rattus norvegicus. As to the kind of experiment: In vitro relative potency versus [DPhe12,Nle21,38]-hCRF(12-41), using rat pituitary culture assay. The experiment is classed as functional.
The species named for experiment [2] is Rattus norvegicus. Put plainly: The percent intrinsic activity, determined by level of antagonist induced secretion. The format is functional.

In experiment [1], `CCCC[C@H](NC(=O)[C@H](CCC(=O)O)NC(=O)[C@H](CC(C)C)NC(=O)[C@@H](NC(=O)[C@H](CCC(=O)O)NC(=O)[C@H](CCCN=C(N)N)NC(=O)[C@H](CC(C)C)NC(=O)[C@H](CC(C)C)NC(=O)[C@@H]1CCCCNC(=O)CC[C@H](NC(=O)[C@@H](N)CC(=O)O)C(=O)N[C@@H]([C@@H](C)O)C(=O)N[C@H](Cc2ccccc2)C(=O)N1)C(C)C)C(=O)N[C@@H](C)C(=O)N[C@@H](CCCN=C(N)N)C(=O)N[C@@H](C)C(=O)N[C@@H](CCC(=O)O)C(=O)N[C@@H](CCC(N)=O)C(=O)N[C@@H](CC(C)C)C(=O)N[C@@H](C)C(=O)N[C@@H](CCC(N)=O)C(=O)N[C@@H](CCC(N)=O)C(=O)N[C@@H](C)C(=O)N[C@@H](Cc1c[nH]cn1)C(=O)N[C@@H](CO)C(=O)N[C@@H](CC(N)=O)C(=O)N[C@@H](CCCN=C(N)N)C(=O)N[C@@H](CCCCN)C(=O)N[C@@H](CC(C)C)C(=O)N[C@@H](CCCC)C(=O)N[C@@H](CCC(=O)O)C(=O)N[C@H](C(=O)N[C@H](C(N)=O)[C@@H](C)CC)[C@@H](C)CC` showed a Relative potency of 0.27. The IA in experiment [2] is listed as 27%.
For `CCCC[C@H](NC(=O)[C@H](CCC(=O)O)NC(=O)[C@H](CC(C)C)NC(=O)[C@@H](NC(=O)[C@H](CCC(=O)O)NC(=O)[C@H](CCCN=C(N)N)NC(=O)[C@H](CC(C)C)NC(=O)[C@@H]1CCCCNC(=O)CC[C@H](NC(=O)[C@H](CC(C)C)NC(=O)[C@@H](N)CC(=O)O)C(=O)N[C@H](Cc2ccccc2)C(=O)N[C@@H](Cc2c[nH]cn2)C(=O)N1)C(C)C)C(=O)N[C@@H](C)C(=O)N[C@@H](CCCN=C(N)N)C(=O)N[C@@H](C)C(=O)N[C@@H](CCC(=O)O)C(=O)N[C@@H](CCC(N)=O)C(=O)N[C@@H](CC(C)C)C(=O)N[C@@H](C)C(=O)N[C@@H](CCC(N)=O)C(=O)N[C@@H](CCC(N)=O)C(=O)N[C@@H](C)C(=O)N[C@@H](Cc1c[nH]cn1)C(=O)N[C@@H](CO)C(=O)N[C@@H](CC(N)=O)C(=O)N[C@@H](CCCN=C(N)N)C(=O)N[C@@H](CCCCN)C(=O)N[C@@H](CC(C)C)C(=O)N[C@@H](CCCC)C(=O)N[C@@H](CCC(=O)O)C(=O)N[C@H](C(=O)N[C@H](C(N)=O)[C@@H](C)CC)[C@@H](C)CC` the same measures were 0.005 and 29%.

These data come from ChEMBL document CHEMBL1130221, “Constrained corticotropin-releasing factor antagonists with i-(i + 3) Glu-Lys bridges” (1997).
